Patent US20250136606A1, “MODULATORS OF TRPML, THEIR COMPOSITIONS AND METHODS OF USE” (Caraway Therapeutics, Inc., priority 2021, published 2025)
Read-outs that look alike come from different tables or passages of the source.

Experiments:
TRPML3 = molecular target: T1, TRPML3 (Homo sapiens, UniProt Q8TDD5); experiment: Fluorescent TRPML3 assay (performed as for TRPML1, substituting the TRPML3 subtype); type: cell-based
T1 construct: expressed in transfected cells
T1 sequence (Q8TDD5 1-553): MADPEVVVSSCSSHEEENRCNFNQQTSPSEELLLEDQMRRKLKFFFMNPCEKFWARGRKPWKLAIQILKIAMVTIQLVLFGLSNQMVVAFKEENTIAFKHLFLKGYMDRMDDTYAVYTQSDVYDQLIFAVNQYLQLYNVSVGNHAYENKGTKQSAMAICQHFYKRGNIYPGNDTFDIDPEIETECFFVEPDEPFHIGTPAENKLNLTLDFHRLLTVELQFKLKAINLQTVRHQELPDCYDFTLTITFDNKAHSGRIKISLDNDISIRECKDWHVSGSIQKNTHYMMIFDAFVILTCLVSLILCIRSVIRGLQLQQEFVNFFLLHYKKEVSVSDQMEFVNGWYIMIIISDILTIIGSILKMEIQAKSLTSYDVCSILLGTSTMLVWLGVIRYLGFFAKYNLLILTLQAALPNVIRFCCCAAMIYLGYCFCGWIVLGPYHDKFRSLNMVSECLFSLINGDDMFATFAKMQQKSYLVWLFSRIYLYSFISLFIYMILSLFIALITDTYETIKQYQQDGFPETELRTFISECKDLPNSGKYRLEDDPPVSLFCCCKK
Experimental: (§1) HEK-293 Trex cells were stably transfected with a construct consisting of the human coding sequence for TRPML1 cloned into the […] plasmid pCDNA5 T/O. Mutations were introduced into the TRPML1 sequence to facilitate expression on the cell surface (Silvia Vergarajauregui, Rosa Puertollano, Traffic. 2006 March; 7(3): 337-353). Briefly, the cells are cultured in 150 mm round tissue culture dishes containing 20 mL of media. The day before the assay the cells are rinsed with DPBS-Ca—Mg and then treated briefly with Trypsin-EDTA. The Trypsin-EDTA is diluted with growth media, and cells are counted. 38×10^6 cells are re-plated into 150 mm round tissue culture dishes in media containing 0.5 ug/mL doxycycline to induce expression of hTRPML1.
(§2) The day of the experiment cells are lifted from the plates as above and collected by centrifugation. The cells are then suspended in dye loading buffer consisting of Ringer's solution supplemented with 0.1% Pluronic Acid and 1 micromolar Fluo4-AM dye. Cells are loaded for ˜60 minutes in the dark with occasional mixing. The cells are collected by centrifugation, the loading media aspirated, and the cells resuspended in 25 mL Ringer's solution and incubated ˜60 minutes in the dark. The cells are again collected by centrifugation, rinsed in Ringer's Solution and resuspended to […] in modified Ringer's solution containing 10 mM calcium.
(§3) Compounds are dissolved to a concentration of 10 millimolar with DMSO. Compound plates are created by dispensing compounds into 384 well black wall clear bottom plates (Greiner 781091). Positive and negative controls are included on each plate. Typically, different amounts of each compound are tested ranging from 100 nanoMoles (20 micromolar final concentration) decreasing in half-log steps to 31 picoMoles (6 nanomolar final concentration). Each concentration is typically tested in triplicate.
(§4) 50 microliters of dye-loaded cells are dispensed into each well of the compound assay plate created above. The fluorescence in each well is then determined with an excitation wavelength of 480 nm and an emission wavelength of 540 nm using either a Molecular Devices SpectraMax multimode plate reader or a Hamamatsu FDSS/uCell plate imager.
(§5) The resulting fluorescence for each well is exported as an ascii file and loaded into our LIMS for analysis. The percent activity of each compound at each concentration is determined by comparison to the positive and negative control wells included in each plate.
TRPML2 and TRPML3 Assays Assays for TRPML2 and TRPML3 were performed as above for TRPML1, by substituting the appropriate TRPML2 or TRPML3 subtype for the TRPML1.
(§6) EC50 values were calculated using a non-linear regression of Prism. In the table, “A” indicates an EC50 of less than 100 nM, “B” indicates an EC50 range from 100 nM to 500 nM; “C” indicates an EC50 range from 500 nM to 2 μM; and “D” indicates an EC50 greater than 2 μM.

TRPML1 = TRPML1 (Homo sapiens, UniProt Q9GZU1); experiment: Fluorescent TRPML1 assay (Fluo4-AM calcium fluorescence in doxycycline-induced HEK-293 Trex cells); type: cell-based
Experimental: as §1, §2, §3, §4, §5, §6

Chain of TRPML1 (Q9GZU1 whole entry L15A/L16A/L577A/L578A, form open): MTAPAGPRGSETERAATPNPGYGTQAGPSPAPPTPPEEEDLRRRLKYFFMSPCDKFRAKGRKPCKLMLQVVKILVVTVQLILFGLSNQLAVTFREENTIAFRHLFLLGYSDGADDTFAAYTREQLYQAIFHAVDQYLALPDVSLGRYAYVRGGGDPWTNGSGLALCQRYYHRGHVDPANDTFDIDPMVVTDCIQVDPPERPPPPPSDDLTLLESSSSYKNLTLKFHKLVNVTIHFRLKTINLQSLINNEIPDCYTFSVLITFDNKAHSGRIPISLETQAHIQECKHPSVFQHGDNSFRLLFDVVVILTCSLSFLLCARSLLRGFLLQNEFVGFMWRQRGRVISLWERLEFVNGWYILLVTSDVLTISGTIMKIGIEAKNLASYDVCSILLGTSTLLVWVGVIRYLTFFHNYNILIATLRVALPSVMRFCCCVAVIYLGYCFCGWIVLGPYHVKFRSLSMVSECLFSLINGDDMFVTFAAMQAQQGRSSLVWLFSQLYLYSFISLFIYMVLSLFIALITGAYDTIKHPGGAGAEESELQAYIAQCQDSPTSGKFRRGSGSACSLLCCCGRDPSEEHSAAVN

| EC50 (TRPML3; fluorescent calcium assay) [nM] | EC50 (TRPML1; fluorescent calcium assay) [nM] | EC50 (TRPML3) [nM] | EC50 (TRPML1) [nM] | Structure (SMILES) |
| --- | --- | --- | --- | --- |
| 500 to 2000 | 500 to 2000 |  |  | CC(C)(C)OC(=O)N1CCN(c2ncnc3c2c(C2CC2)cn3-c2cc(F)cc(F)c2)C[C@@H]1C(F)F (single isomer, unassigned) [Compound 315] |
|  |  | 100 to 500 | 500 to 2000 | C[C@@H]1CN(c2ncnc3c2c(C(F)(F)F)cn3[C@H]2CCCC(F)(F)C2)[C@@H](C)CN1C(=O)OC(C)(C)C (single isomer, unassigned) [Compound 713] |
| 500 to 2000 | 500 to 2000 |  |  | CCOC(=O)N1C[C@H](C)N(c2ncnc3c2c(-c2cnccn2)cn3-c2cccc(Cl)c2)C[C@H]1C [Compound 125, Ethyl (2R,5S)-4-(7-(3-chlorophenyl)-5-(pyrazin-2-yl)-7H-pyrrolo[2,3-d]pyrimidin-4-yl)-2,5-dimethylpiperazine-1-carboxylate] |
| 500 to 2000 | 500 to 2000 |  |  | CCOC(=O)N1CCN(c2ncnc3c2c(-c2ccccc2F)cn3-c2cncc(OC)c2)[C@@H](C)C1 [Compound 126, ethyl (S)-4-(5-(2-fluorophenyl)-7-(5-methoxypyridin-3-yl)-7H-pyrrolo[2,3-d]pyrimidin-4-yl)-3-methylpiperazine-1-carboxylate] |
| > 2000 | > 2000 |  |  | CCOC(=O)N1CCN(c2ncnc3c2c(C2CC2)cn3-c2cncc(C)c2)[C@@H](C)C1 [Compound 153, ethyl (S)-4-(5-cyclopropyl-7-(5-methylpyridin-3-yl)-7H-pyrrolo[2,3-d]pyrimidin-4-yl)-3-methylpiperazine-1-carboxylate] |
| 100 to 500 | 100 to 500 |  |  | CCOC(=O)N1C[C@H](C)N(c2ncnc3c2c(C2CC2)cn3-c2cccc(Cl)c2)[C@@H](C)C1 [Compound 189, ethyl (3S,5S)-4-(7-(3-chlorophenyl)-5-cyclopropyl-7H-pyrrolo[2,3-d]pyrimidin-4-yl)-3,5-dimethylpiperazine-1-carboxylate] |
| 100 to 500 | 500 to 2000 |  |  | C[C@@H]1CN(C(=O)OC(C)(C)C)CCN1c1ncnc2c1c(N1CCOCC1)cn2-c1cc(F)cc(F)c1 [Compound 227, tert-Butyl (R)-4-(7-(3,5-difluorophenyl)-5-morpholino-7H-pyrrolo[2,3-d]pyrimidin-4-yl)-3-methylpiperazine-1-carboxylate] |
| 100 to 500 | > 2000 |  |  | C[C@@H]1CN(c2ncnc3c2c(N2CCC[C@H]2CO)cn3-c2cccc(Cl)c2)CCN1C(=O)OC(C)(C)C [Compound 283, tert-butyl (R)-4-(7-(3-chlorophenyl)-5-((S)-2-(hydroxymethyl)pyrrolidin-1-yl)-7H-pyrrolo[2,3-d]pyrimidin-4-yl)-2-methylpiperazine-1-carboxylate] |
| < 100 | 500 to 2000 |  |  | C[C@H]1CCCN1c1cn(-c2cccc(Cl)c2)c2ncnc(N3CCN(C(=O)OC(C)(C)C)C[C@@H]3C)c12 [Compound 316, tert-butyl (S)-4-(7-(3-chlorophenyl)-5-((S)-2-methylpyrrolidin-1-yl)-7H-pyrrolo[2,3-d]pyrimidin-4-yl)-3-methylpiperazine-1-carboxylate] |
|  | 100 to 500 |  |  | C[C@H]1CN(C(=O)OC(C)(C)C(F)(F)F)CCN1c1ncnc2c1c(N1CCCC1)cn2C1CCCCC1 [Compound 359, 1,1,1-trifluoro-2-methylpropan-2-yl (S)-4-(7-cyclohexyl-5-(pyrrolidin-1-yl)-7H-pyrrolo[2,3-d]pyrimidin-4-yl)-3-methylpiperazine-1-carboxylate] |
|  | 500 to 2000 |  |  | C[C@H]1CN(C(=O)OC(C)(C)C)CCN1c1ncnc2c1c(N1CCCC1)cn2C1CCOCC1 [Compound 360, tert-butyl (S)-3-methyl-4-(5-(pyrrolidin-1-yl)-7-(tetrahydro-2H-pyran-4-yl)-7H-pyrrolo[2,3-d]pyrimidin-4-yl)piperazine-1-carboxylate] |
|  | < 100 |  |  | C[C@H]1CN(C(=O)OC(C)(C)C)CCN1c1ncnc2c1c(C1CC1)cn2[C@@H]1C[C@@H]2CC[C@H]1C2 [Compound 361, tert-butyl (S)-4-(7-((1S,2R,4R)-bicyclo[2.2.1]heptan-2-yl)-5-cyclopropyl-7H-pyrrolo[2,3-d]pyrimidin-4-yl)-3-methylpiperazine-1-carboxylate] |
